# Data as given in PMC7979765, “trans-Translation inhibitors bind to a novel site on the ribosome and clear Neisseria gonorrhoeae in vivo” (Nature Communications, 2021).
# System: Neisseria gonorrhoeae
# Test: MIC, microbroth dilution, G77L medium
# Type: cell-based
# Settings: Neisseria gonorrhoeae
structure (smiles),measurement,setting,value
O=C(Nc1nnc(-c2ccc(F)cc2)o1)N1CCc2ccccc2C1 [MBX-4132],MIC,"strain CDC-0165, replicates 1-3",0.677 µg/mL
same,MIC,"strain CDC-0166, CIP, PEN, TET",0.17 µg/mL
same,MIC,"strain CDC-0166, replicates 1-3",0.169 µg/mL
same,MIC,strain CDC-0167,0.13 µg/mL
same,MIC,"strain CDC-0167, replicates 1-3",0.169 µg/mL
same,MIC,"strain CDC-0169, CIP, PEN, TET",0.17 µg/mL
same,MIC,"strain CDC-0169, replicates 1-3",0.169 µg/mL
same,MIC,"strain CDC-0170, CIP, PEN, TET",0.17 µg/mL
same,MIC,"strain CDC-0170, replicates 1-3",0.169 µg/mL
same,MIC,"strain CDC-0171, CIP, PEN, TET",0.17 µg/mL
same,MIC,"strain CDC-0171, replicates 1-3",0.169 µg/mL
same,MIC,"strain CDC-0172, CIP, PEN, TET",0.17 µg/mL
same,MIC,"strain CDC-0172, replicates 1-3",0.169 µg/mL
same,MIC,"strain CDC-0173, CIP, PEN, TET",0.17 µg/mL
same,MIC,"strain CDC-0173, replicates 1-3",0.169 µg/mL
same,MIC,"strain CDC-0174, CIP, PEN, TET",0.17 µg/mL
same,MIC,"strain CDC-0174, replicates 1-3",0.169 µg/mL
same,MIC,"strain CDC-0175, CIP, PEN, TET",0.08 µg/mL
same,MIC,"strain CDC-0175, replicates 1-3",0.085 µg/mL
same,MIC,strain CDC-0176,0.34 µg/mL
same,MIC,"strain CDC-0176, replicates 1-3",0.338 µg/mL
same,MIC,"strain CDC-0177, CIP, PEN, TET",0.17 µg/mL
same,MIC,"strain CDC-0177, replicates 1-3",0.169 µg/mL
same,MIC,"strain CDC-0178, TET",0.34 µg/mL
same,MIC,"strain CDC-0178, replicates 1-3",0.338 µg/mL
same,MIC,"strain CDC-0179, CIP, PEN, TET",0.08 µg/mL
same,MIC,"strain CDC-0179, replicates 1-3",0.085 µg/mL
same,MIC,strain CDC-0180,0.17 µg/mL
same,MIC,"strain CDC-0180, replicates 1-3",0.169 µg/mL
same,MIC,"strain CDC-0181, CIP, PEN, TET",0.17 µg/mL
same,MIC,"strain CDC-0181, replicates 1-3",0.169 µg/mL
same,MIC,"strain CDC-0182, TET",0.17 µg/mL
same,MIC,"strain CDC-0182, replicates 1-3",0.169 µg/mL
same,MIC,"strain CDC-0183, CIP, PEN, TET",0.34 µg/mL
same,MIC,"strain CDC-0183, replicates 1-3",0.338 µg/mL
same,MIC,"strain CDC-0184, CIP, PEN, TET",0.17 µg/mL
same,MIC,"strain CDC-0184, replicates 1-3",0.169 µg/mL
same,MIC,"strain CDC-0185, CIP, PEN, TET",0.27 µg/mL
same,MIC,"strain CDC-0185, replicates 1-3",0.338 µg/mL
same,MIC,"strain CDC-0186, CIP, PEN, TET",0.17 µg/mL
same,MIC,"strain CDC-0186, replicates 1-3",0.169 µg/mL
same,MIC,"strain CDC-0187, CIP, PEN, TET",0.34 µg/mL
same,MIC,"strain CDC-0187, replicates 1-3",0.338 µg/mL
same,MIC,"strain CDC-0188, CIP, PEN",0.17 µg/mL
same,MIC,"strain CDC-0188, replicates 1-3",0.169 µg/mL
same,MIC,"strain CDC-0189, CIP, PEN, TET",0.13 µg/mL
same,MIC,"strain CDC-0189, replicates 1-3",0.169 µg/mL
same,MIC,"strain CDC-0190, CIP, PEN, TET",0.17 µg/mL
same,MIC,"strain CDC-0190, replicates 1-3",0.169 µg/mL
same,MIC,"strain HO41, PEN, TET, CFM, CRO, LVX",0.17 µg/mL
same,MIC,"strain HO41, replicates 1-3",0.169 µg/mL
same,MIC,"strain MMX 6744, broth dilution by Micromyx",0.27 µg/mL
same,MIC,"strain MMX 6746, CIP, by Micromyx",0.14 µg/mL
same,MIC,"strain MMX 6752, TET, by Micromyx",0.27 µg/mL
same,MIC,"strain MMX 6753, by Micromyx",0.14 µg/mL
same,MIC,"strain MMX 6757, by Micromyx",0.07 µg/mL
same,MIC,"strain MMX 6758, by Micromyx",0.27 µg/mL
same,MIC,"strain MMX 6762, by Micromyx",0.27 µg/mL
same,MIC,"strain MMX 6767, by Micromyx",0.14 µg/mL
